1 compound from paper PMC4667280, “Crystal structure of FadD32, an enzyme essential for mycolic acid biosynthesis in mycobacteria” (Scientific Reports, 2015) can be followed below.

The target in this experiment is T1, MsFadD32 (full-length FadD32 from M. smegmatis) (Mycolicibacterium smegmatis, UniProt A0R618).
T1 construct: full-length (N-terminal domain 1-483, C-terminal domain 484-630), expressed in E. coli BL21(DE3) as SUMO (SMT3) fusion; crystal of the SUMO fusion
T1 sequence (A0R618 1-630): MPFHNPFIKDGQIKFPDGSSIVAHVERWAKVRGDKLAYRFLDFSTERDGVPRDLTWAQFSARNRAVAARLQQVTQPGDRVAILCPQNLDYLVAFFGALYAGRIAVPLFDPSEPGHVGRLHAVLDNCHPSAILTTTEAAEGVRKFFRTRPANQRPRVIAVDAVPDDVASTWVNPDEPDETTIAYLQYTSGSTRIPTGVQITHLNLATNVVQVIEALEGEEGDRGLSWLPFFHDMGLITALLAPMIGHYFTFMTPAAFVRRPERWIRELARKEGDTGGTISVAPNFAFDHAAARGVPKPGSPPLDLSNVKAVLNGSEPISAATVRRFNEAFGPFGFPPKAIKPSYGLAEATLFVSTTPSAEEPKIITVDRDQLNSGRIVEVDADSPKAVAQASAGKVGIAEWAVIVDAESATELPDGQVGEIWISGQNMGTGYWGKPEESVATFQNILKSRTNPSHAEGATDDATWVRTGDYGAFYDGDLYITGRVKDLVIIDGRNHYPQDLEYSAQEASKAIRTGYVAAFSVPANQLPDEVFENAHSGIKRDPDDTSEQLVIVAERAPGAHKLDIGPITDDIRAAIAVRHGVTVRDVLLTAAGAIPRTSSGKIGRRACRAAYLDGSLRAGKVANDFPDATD
As to the kind of experiment: isothermal titration calorimetry; crystal structure of the complex at […] Å. Format: binding. In general terms: Isothermal titration calorimetry measures the heat released or taken up as one component is titrated into another.

By Kd is commonly meant the concentration at which binding is half-saturated. Higher therefore signals lower affinity. In the case of `Nc1ncnc2c1ncn2[C@@H]1O[C@H](COP(=O)(O)OP(=O)(O)OP(=O)(O)O)[C@@H](O)[C@H]1O` [ATP], the Kd was ~36 µM.
